The record followed here is patent US20070082880A1 (priority 2005, published 2007).

The target of this experiment is T1, human PKCθ full length enzyme (Homo sapiens, UniProt Q04759).
T1 construct: human PKCθ full length enzyme (Panvera Catalog No. P2996); purchased Panvera P2996
Description: PKCθ IMAP Assay. Format: biochemical. The settings on record: average value when one or more samples were tested; ATP 6 uM, PKCθ 1 nM. The essentials:
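IMAP fluorescence polarization after 20 min with binding beads measured phosphorylation of 100 nM 5FAM-peptide. Reactions held 1 nM full-length human PKCθ, 6 uM ATP, 5% DMSO and DTT-containing buffer, 25 min at room temperature. Compounds tested as 2:1 serial dilutions; controls lacked ATP or enzyme.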

T1 sequence (Q04759 whole entry): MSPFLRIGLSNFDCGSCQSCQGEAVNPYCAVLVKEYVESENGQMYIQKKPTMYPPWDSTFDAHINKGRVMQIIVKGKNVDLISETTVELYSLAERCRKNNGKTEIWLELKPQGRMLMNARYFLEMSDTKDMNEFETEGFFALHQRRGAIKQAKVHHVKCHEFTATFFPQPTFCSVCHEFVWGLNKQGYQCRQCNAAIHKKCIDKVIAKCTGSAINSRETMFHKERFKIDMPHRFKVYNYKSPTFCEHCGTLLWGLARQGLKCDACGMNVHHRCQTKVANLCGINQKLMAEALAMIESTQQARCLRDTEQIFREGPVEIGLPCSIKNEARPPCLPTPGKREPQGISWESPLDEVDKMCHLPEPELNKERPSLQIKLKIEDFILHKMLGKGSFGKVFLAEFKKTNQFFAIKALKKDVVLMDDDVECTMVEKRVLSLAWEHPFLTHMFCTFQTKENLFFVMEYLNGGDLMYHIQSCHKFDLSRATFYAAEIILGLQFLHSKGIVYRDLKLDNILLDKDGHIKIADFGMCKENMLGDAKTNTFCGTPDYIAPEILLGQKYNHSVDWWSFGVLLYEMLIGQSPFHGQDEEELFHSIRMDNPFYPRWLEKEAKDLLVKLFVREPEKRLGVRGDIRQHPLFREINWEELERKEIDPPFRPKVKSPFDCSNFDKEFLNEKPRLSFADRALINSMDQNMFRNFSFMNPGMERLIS

For the compound `Cc1c(Nc2c(C#N)cnc3sc(-c4cc5ccccc5s4)cc23)ccc2[nH]ccc12` [Compound 373, 2-(1-benzothien-2-yl)-4-[(4-methyl-1H-indol-5-yl)amino]thieno[2,3-b]pyridine-5-carbonitrile], the IC50 (commonly the concentration that gives 50% inhibition) was 57 nM.

The compound `CN(C)Cc1ccc(-c2cc3c(Nc4ccc5[nH]ccc5c4)c(C#N)cnc3s2)o1` [Compound 153, 2-{5-[(dimethylamino)methyl]-2-furyl}-4-(1H-indol-5-ylamino)thieno[2,3-b]pyridine-5-carbonitrile] yielded an IC50 of 170 nM.

As for `CN(C)c1cccc(-c2cc3c(Nc4ccc5[nH]ccc5c4)c(C#N)cnc3s2)c1` [Compound 197, 2-[3-(dimethylamino)phenyl]-4-(1H-indol-5-ylamino)thieno[2,3-b]pyridine-5-carbonitrile], the half-maximal inhibitory concentration (IC50) is 480 nM.

In turn, `CC(C)(C)OC(=O)N1CC=C(c2cc3c(Nc4ccc5[nH]ccc5c4)c(C#N)cnc3s2)CC1` [Compound 419, tert-butyl 4-[5-cyano-4-(1H-indol-5-ylamino)thieno[2,3-b]pyridin-2-yl]-3,6-dihydropyridine-1(2H)-carboxylate] returned an IC50 of 954 nM.

With `Cc1c(Nc2c(C#N)cnc3sc(-c4ccnn4C)cc23)ccc2[nH]ccc12` [Compound 527, 4-[(4-methyl-1H-indol-5-yl)amino]-2-(1-methyl-1H-pyrazol-5-yl)thieno[2,3-b]pyridine-5-carbonitrile], half-maximal inhibition (IC50) was put at 35 nM.

`Cc1c(Nc2c(C#N)cnc3sc(-c4ccc(NCCN5CCOCC5)nc4)cc23)ccc2[nH]ccc12` [Compound 352, 4-[(4-methyl-1H-indol-5-yl)amino]-2-{6-[(2-morpholin-4-ylethyl)amino]pyridin-3-yl}thieno[2,3-b]pyridine-5-carbonitrile]: the 50% inhibitory concentration (IC50) worked out at 23 nM.

For `Cc1c(Nc2c(C#N)cnc3sc(-c4cc(CN(C)C)cc(OC(C)C)c4)cc23)ccc2[nH]ccc12` [Compound 466, 2-{3-[(dimethylamino)methyl]-5-isopropoxyphenyl}-4-[(4-methyl-1H-indol-5-yl)amino]thieno[2,3-b]pyridine-5-carbonitrile], half-maximal inhibition (IC50) required 64 nM. This IC50 lies about 2.8-fold higher than the previous one.

`CCCOc1ccccc1-c1cc2c(Nc3ccc4[nH]ccc4c3C)c(C#N)cnc2s1` [Compound 382, 4-[(4-methyl-1H-indol-5-yl)amino]-2-(2-propoxyphenyl)thieno[2,3-b]pyridine-5-carbonitrile]: the concentration for half-maximal inhibition (IC50) came to 570 nM.

As for `CN(C)C(=O)c1cccc(-c2cc3c(Nc4cccc5[nH]ccc45)c(C#N)cnc3s2)c1` [Compound 194, 3-[5-cyano-4-(1H-indol-4-ylamino)thieno[2,3-b]pyridine-2-yl]-N,N-dimethylbenzamide], the IC50 came to 120 nM. This IC50 is about 4.8-fold lower than that of the compound before.

`Cc1c(Nc2c(C#N)cnc3sc(-c4ccc(C(=O)NCCN(C)C)cc4)c(C)c23)ccc2[nH]ccc12` [Compound 430, 4-{5-cyano-3-methyl-4-[(4-methyl-1H-indol-5-yl)amino]thieno[2,3-b]pyridin-2-yl}-N-[2-(dimethylamino)ethyl]benzamide] came in with an IC50 of 116 nM.

As to `CS(=O)(=O)Nc1ccccc1-c1cc2c(Nc3ccc4[nH]ccc4c3)c(C#N)cnc2s1` [Compound 370, N-{2-[5-cyano-4-(1H-indol-5-ylamino)thieno[2,3-b]pyridin-2-yl]phenyl}methanesulfonamide], 1010 nM corresponded to half-maximal inhibition (IC50). This IC50 is about 8.7-fold higher than that of the compound before.

In turn, `COCCNC(=O)/C=C/c1cc2c(Nc3ccc4[nH]ccc4c3C)c(C#N)cnc2s1` [Compound 308, (2E)-3-{5-cyano-4-[(4-methyl-1H-indol-5-yl)amino]thieno[2,3-b]pyridin-2-yl}-N-(2-methoxyethyl)acrylamide] gave an IC50 of 48 nM. Against the preceding compound, the IC50 is about 21-fold lower.

`Cc1c(Nc2c(C#N)cnc3sc(-c4ccccc4F)cc23)ccc2[nH]ccc12` [Compound 388, 2-(2-fluorophenyl)-4-[(4-methyl-1H-indol-5-yl)amino]thieno[2,3-b]pyridine-5-carbonitrile] came in with an IC50 of 118 nM. This IC50 lies about 2.5-fold higher than the previous one.

In turn, `Cc1c(Nc2c(C#N)cnc3sc(-c4cccc(OC[C@H](C)O)c4)cc23)ccc2[nH]ccc12` [Compound 483, 2-(3-{[(2S)-2-hydroxypropyl]-oxy}phenyl)-4-[(4-methyl-1H-indol-5-yl)amino]thieno[2,3-b]pyridine-5-carbonitrile] gave a concentration for half-maximal inhibition (IC50) of 59 nM. Against the preceding compound, the IC50 is about 2-fold lower.

Compound `Cc1c(Nc2c(C#N)cnc3sc(-c4cnc(N5CCCC5)nc4)cc23)ccc2[nH]ccc12` [Compound 396, 4-[(4-methyl-1H-indol-5-yl)amino]-2-(2-pyrrolidin-1-ylpyrimidin-5-yl)thieno[2,3-b]pyridine-5-carbonitrile] came in with a concentration for half-maximal inhibition (IC50) of 156 nM.

`Cc1c(Nc2c(C#N)cnc3sc(-c4cccc(N(C)CCN(C)C)c4)cc23)ccc2[nH]ccc12` [Compound 390, 2-(3-{[2-(dimethylamino)ethyl](methyl)amino}phenyl)-4-[(4-methyl-1H-indol-5-yl)amino]thieno[2,3-b]pyridine-5-carbonitrile] registered a half-inhibitory concentration (IC50) of 43 nM. Compared with the last compound, the IC50 is about 3.6-fold lower.

`CN(C)Cc1ccccc1-c1cc2c(Nc3ccc4[nH]ccc4c3)c(C#N)cnc2s1` [Compound 114, 2-{2-[(dimethylamino)methyl]phenyl}-4-(1H-indol-5-ylamino)thieno[2,3-b]pyridine-5-carbonitrile] registered an IC50 of 570 nM.

For the compound `CN(C)CCNCc1cccc(-c2cc3c(Nc4ccc5[nH]ccc5c4)c(C#N)cnc3s2)c1` [Compound 166, 2-[3-({[2-(dimethylamino)ethyl]amino}methyl)phenyl]-4-(1H-indol-5-ylamino)thieno[2,3-b]pyridine-5-carbonitrile], the IC50 is 160 nM.

Regarding `N#Cc1cnc2sc(-c3cccc(CNCCCO)c3)cc2c1Nc1ccc2[nH]ccc2c1` [Compound 167, 2-(3-{[(3-hydroxypropyl)amino]methyl}phenyl)-4-(1H-indol-5-ylamino)thieno[2,3-b]pyridine-5-carbonitrile], 110 nM corresponded to half-maximal inhibition (IC50).

With `CN(C)Cc1cccc(-c2cc3c(Nc4cnc5[nH]ccc5c4)c(C#N)cnc3s2)c1` [Compound 320, 2-{3-[(dimethylamino)methyl]phenyl}-4-(1H-pyrrolo[2,3-b]pyridin-5-ylamino)thieno[2,3-b]pyridine-5-carbonitrile], half-maximal inhibition (IC50) required 690 nM. This IC50 is about 6.3-fold higher than that of the compound before.

`Cc1c(Nc2c(C#N)cnc3sc(-c4ccc(S(C)(=O)=O)cc4)cc23)ccc2[nH]ccc12` [Compound 376, 4-[(4-methyl-1H-indol-5-yl)amino]-2-[4-(methylsulfonyl)phenyl]thieno[2,3-b]pyridine-5-carbonitrile] yielded a half-inhibitory concentration (IC50) of 26 nM.

In turn, `CN(C)C(=O)c1cccc(-c2cc3c(Nc4ccc5[nH]ccc5c4)c(C#N)cnc3s2)c1` [Compound 195, 3-[5-cyano-4-(1H-indol-5-ylamino)thieno[2,3-b]pyridine-2-yl]-N,N-dimethylbenzamide] returned a half-maximal inhibitory concentration (IC50) of 420 nM.

`N#Cc1cnc2sc(-c3cccc(CN4CCCC(CO)C4)c3)cc2c1Nc1ccc2[nH]ccc2c1` (stereo not drawn) [Compound 173, 2-(3-{[3-(hydroxymethyl)piperidin-1-yl]methyl}phenyl)-4-(1H-indol-5-ylamino)thieno[2,3-b]pyridine-5-carbonitrile]: inhibition was half-maximal at 130 nM (IC50). This IC50 lies about 3.2-fold lower than the previous one.

In turn, `Cc1ccc2[nH]ccc2c1Nc1c(C#N)cnc2sc(-c3ccccc3)cc12` [Compound 319, 4-[(5-methyl-1H-indol-4-yl)amino]-2-phenylthieno[2,3-b]pyridine-5-carbonitrilee] returned an IC50 of 1110 nM.
